Source: US6841366B1, “Biotin biosynthesis in bacillus subtilis” (DSM IP Assets B.V., priority 1993, dated 2005)

Legend:
E. coli strain MM294 = assay: Azelaic acid sensitivity of wild-type E. coli; format: cell-based
Source text: (§1) Therefore, Applicants concluded that azelaic acid acts at the level of pimelyl CoA synthetase (bioW), either as a competitive inhibitor of pimelic acid, or by incorporation into a biotin homolog or other toxic intermediate.

PY79 bioI::cat = assay: Growth of bioI::cat mutants on biotin-free medium with supplements; format: cell-based, B. subtilis
[1] = tested on: E. coli strain RY604(ΔbioH) containing pBIO403; assay: Growth of E. coli carrying only B. subtilis bioW, with pimelic acid and azelaic acid; format: cell-based
Procedure: A plasmid (pBIO403) containing only the B. subtilis bioW gene and its promoter cloned into pCL1921 (Lerner and Inouye, 1990, supra), complemented both E. coli ΔbioH and bioC mutants, if and only if pimelic acid was added to the medium at about 30 mg/l. This experiment confirmed that bioW encodes a pimelyl-CoA synthetase that can bypass bioH and bioC in E. coli.
as §1

[2] = tested on: B. subtilis PY79 and azelaic acid resistant mutants; assay: Growth inhibition by azelaic acid, minimal agar; format: cell-based
Source text: (§2) Azelaic acid, a straight chain C9 dicarboxylic acid, is a homolog of pimelic acid and is thought to be an intermediate in the conversion of oleic acid to pimelic acid (see Ohsugi and Inoue (1981) Agric. Biol. Chem. 45: 2355-2356, hereby incorporated by reference).
Seven spontaneous mutants that outgrew the background of PY79 on 2 g/l Azelaic acid were isolated. The resistance to azelaic acid appeared to be a stable trait in all but one case (see below). The seven mutants were provisionally named PA1-PA7 (PY79 Azelaic acid resistant). PA1 through PA7 were grown in test tubes in VY medium, and biotin production was assayed using E. coli indicator strains (Table 15). The mutants fell into two classes, those that yielded more biotin than PY79 (PA5, PA6) and those that were similar to PY79 (PA1, 2, 3, and 7). PA4 appeared to be either unstable or not a true mutant and was dropped from further study. Applicants also noticed that the mutants fell into two classes with respect to colony size on minimal agar with 2 g/l azelaic acid, and that these two classes corresponded to the two classes of biotin producers (Table 11). The mutants with the most biotin in the supernatant (PA5 and PA6) gave small colonies, while the biotin non-secreters, PA1, 2, 3, and 7, gave large colonies. PA1 and PA3 secreted a compound that cross-fed PY79 (i.e., reversed the azelaic acid inhibition of PY79) on minimal plates containing 2 g/l azelaic acid.

B. subtilis = assay: Stimulation of biotin vitamer production by pimelic acid; format: cell-based; settings: 1 g/l
Procedure: In all fermentations, 1 g/l pimelic acid was added to both the initial batch and feed solutions. BI282, BI278 and BI276 were the most optimized for biotin and biotin vitamer production.
Addition of pimelate to the fermentation medium results in an increased level of a biotin vitamer which is probably KAPA (FIG. 15, lane D). This was shown by an increase in the KAPA/BSO spot compared to similar fermentations without pimelate (FIG. 15, lane B).
as §2

Row | SMILES | Sensitivity of wild-type E. coli MM294 to azelaic acid (E. coli strain MM294) | Growth inhibition of PY79 bioI::cat9 (PY79 bioI::cat; 30 mg/l) | Substitution for pimelic acid in supporting growth of PY79 bioI::cat9 (PY79 bioI::cat; 30 mg/l) | Sensitivity of RY604/pBIO403 to azelaic acid ([1]; grown in excess pimelic acid (80 mg/l)) | Growth inhibition of wild-type B. subtilis ([2]; azelaic acid at concentrations higher than 30 mg/l) | Growth inhibition of PY79 ([2]; minimal agar, azelaic acid 2 g/l (about 10^−2 M), did not kill or completely prevent growth) | Colony size on 2 g/l azelaic acid ([2]; strain PA1, minimal agar) | Colony size on 2 g/l azelaic acid ([2]; strain PA2, minimal agar) | Colony size on 2 g/l azelaic acid ([2]; strain PA3, minimal agar) | Colony size on 2 g/l azelaic acid ([2]; strain PA4, minimal agar) | Colony size on 2 g/l azelaic acid ([2]; strain PA5, minimal agar) | Colony size on 2 g/l azelaic acid ([2]; strain PA6, minimal agar) | Colony size on 2 g/l azelaic acid ([2]; strain PA7, minimal agar) | Colony size on 2 g/l azelaic acid ([2]; strain PY79, minimal agar) | Restoration of growth of PY79 bioI::cat9 bradytroph (PY79 bioI::cat; 30 mg/l) | Growth of PY79 bioI::cat strains (either cat orientation) on biotin-free medium (PY79 bioI::cat; pimelic acid 33 μg/ml) | Satisfaction of the biotin requirement of RY604(ΔbioH)/pBIO403 ([1]; 30 mg/l) | Effect on biotin vitamer production in B. subtilis (B. subtilis)
1 | O=C(O)CCCCCCCC(=O)O [azelaic acid, Azelaic acid] | relatively resistant | severely inhibited the growth | does not substitute for pimelic acid | sensitive to inhibition | inhibits the growth | severely inhibited growth | large | large | large | tiny | small | small | large | tiny | – | – | – | –
2 | O=C(O)CCCCCC(=O)O [pimelic acid] | – | – | – | – | – | – | – | – | – | – | – | – | – | – | restore wild-type growth | grew to wild-type levels | can satisfy the biotin requirement | stimulate biotin vitamer production
